Experiments:
[1] = target: T1, Glycogen synthase kinase-3 beta (Homo sapiens, UniProt P49841); assay: Inhibition of human GSK3-beta expressed in baculovirus by fluorescence polarization assay
[2] = target: Cyclin-dependent kinase 2 (Homo sapiens, UniProt P24941); assay: Inhibition of recombinant CDK2 expressed in baculovirus using […] by 33-P leadseeker assay
[3] = target: T1, Glycogen synthase kinase-3 beta; assay: Inhibition of human flag-tagged GSK3-beta expressed in HEK-MSRII cells assessed as CRMP-2 phosphorylation by alphaLISA assay; type: cell-based
[4] = target: T1, Glycogen synthase kinase-3 beta; assay: Inhibition of human full length His-tagged GSK3-beta expressed in baculovirus by alphaLISA assay

T1 sequence (P49841 whole entry): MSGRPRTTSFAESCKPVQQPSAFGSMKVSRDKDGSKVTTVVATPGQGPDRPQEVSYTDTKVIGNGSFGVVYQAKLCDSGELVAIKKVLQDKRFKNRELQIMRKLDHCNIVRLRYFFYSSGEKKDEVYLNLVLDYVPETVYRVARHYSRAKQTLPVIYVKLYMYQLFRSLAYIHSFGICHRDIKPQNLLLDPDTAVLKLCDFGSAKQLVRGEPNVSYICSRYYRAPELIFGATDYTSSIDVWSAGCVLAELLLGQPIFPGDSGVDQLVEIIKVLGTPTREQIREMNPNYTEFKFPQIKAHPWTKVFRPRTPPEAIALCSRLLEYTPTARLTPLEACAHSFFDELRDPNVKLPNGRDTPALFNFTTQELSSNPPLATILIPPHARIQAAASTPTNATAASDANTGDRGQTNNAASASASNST

SMILES | IC50 [1] | IC50 [2] | IC50 [3] | IC50 [4]
CN(C)C(=O)c1ccccc1-c1c[nH]c(=O)c2cc(-c3ccncc3)sc12 | 316 nM | > 15800 nM | 6310 nM | 
Cn1cc(-c2ccc(N3CCOCC3)cc2)c2sc(-c3ccncc3)cc2c1=O |  | > 15800 nM | > 100000 nM | 251 nM
N#Cc1ccc(F)c(-c2c[nH]c(=O)c3cc(-c4ccncc4)sc23)c1 | 5.01 nM | 200 nM | 79.4 nM | 
O=c1[nH]cc(-c2ccc(N3CCOCC3)cc2)c2sc(-c3ccncc3)cc12 | 501 nM | 15800 nM | 1260 nM | 63.1 nM
COc1cc(F)ccc1-c1c[nH]c(=O)c2cc(-c3ccncc3)sc12 | 158 nM | 5010 nM | 5010 nM | 
Cc1cc(-c2cc3c(=O)[nH]cc(-c4cccc(NS(C)(=O)=O)c4)c3s2)ccn1 | 2510 nM |  | > 100000 nM | 
N#CCc1cccc(-c2c[nH]c(=O)c3cc(-c4ccncc4)sc23)c1 | 10 nM | 3980 nM | 631 nM | 
CS(=O)(=O)Nc1cccc(-c2c[nH]c(=O)c3cc(-c4ccnc5[nH]ccc45)sc23)c1 |  | 3160 nM | > 100000 nM | 20 nM
O=c1[nH]cc(-c2cccc(Cl)n2)c2sc(-c3ccncc3)cc12 | 10 nM | > 15800 nM | 3980 nM | 
COc1ncc(-c2ccc(N3CCOCC3)cc2)c2sc(-c3ccncc3)cc12 |  | > 15800 nM | > 100000 nM | 10000 nM
COCc1ccccc1-c1c[nH]c(=O)c2cc(-c3ccncc3)sc12 | 100 nM | 5010 nM | 3980 nM | 
O=c1[nH]cc(-c2cccc3cccnc23)c2sc(-c3ccncc3)cc12 | 316 nM | 12600 nM | 7940 nM | 
N#Cc1cscc1-c1c[nH]c(=O)c2cc(-c3ccncc3)sc12 | 12.6 nM | 158 nM | 316 nM | 
O=c1[nH]cc(-c2ccc(N3CCOCC3)cc2)c2sc(-c3cn[nH]c3)cc12 |  | 251 nM | 398 nM | 12.6 nM
O=c1[nH]cc(-c2ccc3c(c2)OCCO3)c2sc(-c3ccncc3)cc12 | 6.31 nM | 1580 nM | 631 nM | 
CCOc1ccc(-c2c[nH]c(=O)c3cc(-c4ccncc4)sc23)cn1 | 126 nM | 6310 nM | 3160 nM | 
